Test results: PMC3445516 (PLoS ONE, 2012)
Where two headings read alike, the source gives them in different places.

Key:
Assay in all cases: Ambit kinase profiling, competition binding
BRAF = molecular target: T1, BRAF (Homo sapiens, UniProt P15056)
T1 construct: purchased Ambit Biosciences (KINOMEscan)
Experimental: (§1) Also included in the kinase profile are four isoforms of PKC (δ, ε, η, θ) and eight isoforms of CAMKs (CAMKIα, δ, γ; CAMKIIα, β, δ, γ; CAMK4).
(§2) The global kinase profiling experiment was performed by Ambit Biosciences.

CSNK1D = molecular target: T2, CSNK1D (Homo sapiens, UniProt P48730)
T2 construct: purchased Ambit Biosciences (KINOMEscan)
T2 sequence (P48730 whole entry): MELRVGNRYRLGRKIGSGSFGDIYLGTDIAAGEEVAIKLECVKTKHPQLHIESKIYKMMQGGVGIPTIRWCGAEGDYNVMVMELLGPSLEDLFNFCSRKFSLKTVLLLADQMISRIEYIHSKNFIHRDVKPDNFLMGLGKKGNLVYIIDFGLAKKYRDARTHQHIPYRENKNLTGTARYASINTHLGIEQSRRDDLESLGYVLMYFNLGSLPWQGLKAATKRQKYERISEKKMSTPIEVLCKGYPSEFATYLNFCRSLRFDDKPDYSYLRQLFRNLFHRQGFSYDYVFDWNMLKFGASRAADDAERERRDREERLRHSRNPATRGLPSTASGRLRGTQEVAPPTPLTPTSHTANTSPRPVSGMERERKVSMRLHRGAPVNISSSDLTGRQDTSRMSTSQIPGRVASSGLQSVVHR
Experimental: as §1, §2

CSNK1A1L = molecular target: T3, CSNK1A1L (Homo sapiens, UniProt Q8N752)
T3 construct: purchased Ambit Biosciences (KINOMEscan)
T3 sequence (Q8N752 1-337): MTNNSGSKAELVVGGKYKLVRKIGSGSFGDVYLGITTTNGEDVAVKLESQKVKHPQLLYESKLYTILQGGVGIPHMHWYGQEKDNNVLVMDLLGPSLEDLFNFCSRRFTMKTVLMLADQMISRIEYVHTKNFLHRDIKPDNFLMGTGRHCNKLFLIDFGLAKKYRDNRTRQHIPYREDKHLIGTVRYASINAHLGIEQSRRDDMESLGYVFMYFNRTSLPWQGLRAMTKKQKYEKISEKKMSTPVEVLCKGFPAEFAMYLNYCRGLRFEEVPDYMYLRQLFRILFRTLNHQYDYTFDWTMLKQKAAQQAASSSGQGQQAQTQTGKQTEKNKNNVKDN
Experimental: as §1, §2

STK36 = molecular target: T4, STK36 (Homo sapiens, UniProt Q9NRP7)
T4 construct: purchased Ambit Biosciences (KINOMEscan)
T4 sequence (Q9NRP7 1-1315): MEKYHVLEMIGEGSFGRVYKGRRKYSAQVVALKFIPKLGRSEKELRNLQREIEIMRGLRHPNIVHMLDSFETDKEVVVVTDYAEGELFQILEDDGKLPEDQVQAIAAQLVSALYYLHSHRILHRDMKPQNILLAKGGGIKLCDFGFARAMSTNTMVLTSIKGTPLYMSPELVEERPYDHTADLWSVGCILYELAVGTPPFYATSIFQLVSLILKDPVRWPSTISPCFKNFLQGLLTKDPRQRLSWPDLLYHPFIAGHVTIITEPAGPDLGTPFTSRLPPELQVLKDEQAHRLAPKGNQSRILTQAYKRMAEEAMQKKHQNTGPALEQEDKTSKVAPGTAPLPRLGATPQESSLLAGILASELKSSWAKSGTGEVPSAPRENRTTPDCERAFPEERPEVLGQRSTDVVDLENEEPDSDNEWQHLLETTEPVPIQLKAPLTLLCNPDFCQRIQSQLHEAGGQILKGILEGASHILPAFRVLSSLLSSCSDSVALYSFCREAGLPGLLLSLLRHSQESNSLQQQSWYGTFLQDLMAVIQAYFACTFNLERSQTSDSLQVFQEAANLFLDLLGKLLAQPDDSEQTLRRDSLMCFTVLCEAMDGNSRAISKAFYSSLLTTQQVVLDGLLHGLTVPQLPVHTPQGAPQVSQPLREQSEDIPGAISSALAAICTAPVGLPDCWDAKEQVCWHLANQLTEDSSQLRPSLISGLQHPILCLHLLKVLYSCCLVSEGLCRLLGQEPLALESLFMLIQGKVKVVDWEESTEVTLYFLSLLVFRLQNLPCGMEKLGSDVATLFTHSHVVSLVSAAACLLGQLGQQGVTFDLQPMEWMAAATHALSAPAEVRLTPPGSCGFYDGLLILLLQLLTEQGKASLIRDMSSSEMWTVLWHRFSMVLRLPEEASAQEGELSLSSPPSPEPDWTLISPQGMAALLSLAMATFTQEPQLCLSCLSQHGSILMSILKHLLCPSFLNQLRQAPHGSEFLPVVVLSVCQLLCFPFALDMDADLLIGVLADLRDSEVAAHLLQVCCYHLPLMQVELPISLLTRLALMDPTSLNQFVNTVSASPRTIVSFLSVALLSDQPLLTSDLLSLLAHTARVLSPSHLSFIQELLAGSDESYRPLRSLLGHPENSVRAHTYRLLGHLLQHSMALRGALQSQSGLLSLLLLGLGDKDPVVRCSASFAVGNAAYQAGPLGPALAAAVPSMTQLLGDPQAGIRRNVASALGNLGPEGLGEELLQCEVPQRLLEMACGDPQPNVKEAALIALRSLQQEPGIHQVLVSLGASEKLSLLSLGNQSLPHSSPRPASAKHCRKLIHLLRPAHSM
Experimental: as §1, §2

p38-alpha = molecular target: T5, p38-alpha (Homo sapiens, UniProt Q16539); settings: for % Competition: 10 µM
T5 construct: purchased Ambit Biosciences (KINOMEscan)
T5 sequence (Q16539 whole entry): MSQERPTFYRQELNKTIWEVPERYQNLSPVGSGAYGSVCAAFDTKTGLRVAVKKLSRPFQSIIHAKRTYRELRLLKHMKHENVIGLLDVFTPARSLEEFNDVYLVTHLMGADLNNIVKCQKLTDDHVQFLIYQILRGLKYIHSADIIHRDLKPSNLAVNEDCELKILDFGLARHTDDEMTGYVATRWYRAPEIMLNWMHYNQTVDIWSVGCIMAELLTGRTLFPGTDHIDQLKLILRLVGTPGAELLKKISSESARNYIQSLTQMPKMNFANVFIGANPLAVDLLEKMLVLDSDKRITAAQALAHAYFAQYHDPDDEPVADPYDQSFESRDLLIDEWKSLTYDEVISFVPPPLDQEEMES
Experimental: as §1, §2

CDC2L2 = molecular target: T6, CDC2L2 (Homo sapiens, UniProt Q9UQ88)
T6 construct: purchased Ambit Biosciences (KINOMEscan)
T6 sequence (Q9UQ88 1-783): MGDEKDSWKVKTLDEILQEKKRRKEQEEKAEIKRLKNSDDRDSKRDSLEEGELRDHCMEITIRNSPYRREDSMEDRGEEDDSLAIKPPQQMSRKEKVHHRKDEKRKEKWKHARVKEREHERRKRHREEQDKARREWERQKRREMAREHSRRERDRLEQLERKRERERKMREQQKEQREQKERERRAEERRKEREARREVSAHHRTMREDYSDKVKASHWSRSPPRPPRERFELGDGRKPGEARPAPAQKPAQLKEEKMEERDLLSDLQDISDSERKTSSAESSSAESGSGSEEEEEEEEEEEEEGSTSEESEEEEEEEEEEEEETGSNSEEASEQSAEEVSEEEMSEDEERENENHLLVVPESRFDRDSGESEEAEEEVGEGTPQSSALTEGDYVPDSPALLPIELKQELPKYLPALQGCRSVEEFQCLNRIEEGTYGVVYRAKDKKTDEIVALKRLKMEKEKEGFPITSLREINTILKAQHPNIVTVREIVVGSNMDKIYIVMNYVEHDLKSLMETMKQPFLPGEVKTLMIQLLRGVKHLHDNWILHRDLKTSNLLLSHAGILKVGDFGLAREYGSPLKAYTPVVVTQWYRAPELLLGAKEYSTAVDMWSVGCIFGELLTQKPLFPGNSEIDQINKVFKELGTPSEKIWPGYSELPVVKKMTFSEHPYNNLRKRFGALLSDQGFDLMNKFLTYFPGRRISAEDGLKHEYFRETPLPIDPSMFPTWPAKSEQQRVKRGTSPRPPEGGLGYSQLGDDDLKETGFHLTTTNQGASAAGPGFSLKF
Experimental: as §1, §2

T1 sequence (P15056 whole entry): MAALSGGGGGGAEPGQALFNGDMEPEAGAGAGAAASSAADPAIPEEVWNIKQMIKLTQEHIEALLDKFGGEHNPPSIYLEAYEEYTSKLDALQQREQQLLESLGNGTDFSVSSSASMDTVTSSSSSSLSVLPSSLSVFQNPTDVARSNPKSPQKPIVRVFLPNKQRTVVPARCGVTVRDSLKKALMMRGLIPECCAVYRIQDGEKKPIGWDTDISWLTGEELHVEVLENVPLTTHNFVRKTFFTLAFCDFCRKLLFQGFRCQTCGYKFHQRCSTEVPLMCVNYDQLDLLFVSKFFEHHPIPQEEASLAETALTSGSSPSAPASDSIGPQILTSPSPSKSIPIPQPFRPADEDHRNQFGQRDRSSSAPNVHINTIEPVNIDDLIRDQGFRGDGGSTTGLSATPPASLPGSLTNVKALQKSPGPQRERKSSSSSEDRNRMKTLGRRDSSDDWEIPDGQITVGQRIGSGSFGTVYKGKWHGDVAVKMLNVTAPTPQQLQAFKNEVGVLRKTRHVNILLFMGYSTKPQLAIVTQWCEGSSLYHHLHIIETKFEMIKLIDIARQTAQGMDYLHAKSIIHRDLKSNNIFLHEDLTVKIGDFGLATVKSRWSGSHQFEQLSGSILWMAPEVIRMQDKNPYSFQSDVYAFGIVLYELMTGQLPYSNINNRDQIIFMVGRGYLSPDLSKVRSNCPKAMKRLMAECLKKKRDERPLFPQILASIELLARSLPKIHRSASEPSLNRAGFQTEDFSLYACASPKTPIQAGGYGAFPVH

inhibition at 10 µM (BRAF; BRAF, compound concentration 10 uM, read-out: Percent Competition)	inhibition at 10 µM (CSNK1D; CSNK1D, compound concentration 10 uM, read-out: Percent Competition)	inhibition at 10 µM (CSNK1A1L; CSNK1A1L, compound concentration 10 uM, read-out: Percent Competition)	inhibition at 10 µM (STK36; STK36, compound concentration 10 uM, read-out: Percent Competition)	Percent Competition (p38-alpha; compound concentration 10 uM)	inhibition at 10 µM (CDC2L2; CDC2L2, compound concentration 10 uM, read-out: Percent Competition)	inhibition at 10 µM (BRAF; BRAF, 10 µM, read-out: % Competition)	inhibition at 10 µM (CSNK1D; CSNK1D, 10 µM, read-out: % Competition)	inhibition at 10 µM (CSNK1A1L; CSNK1A1L, 10 µM, read-out: % Competition)	inhibition at 10 µM (STK36; STK36, 10 µM, read-out: % Competition)	inhibition at 10 µM (CDC2L2; CDC2L2, 10 µM, read-out: % Competition)	Compound	% Competition (p38-alpha)	inhibition at 10 µM (BRAF; read-out: % Competition)	inhibition at 10 µM (CSNK1D; read-out: % Competition)	inhibition at 10 µM (CSNK1A1L; read-out: % Competition)	inhibition at 10 µM (STK36; read-out: % Competition, STK36, 10 µM)	inhibition at 10 µM (CDC2L2; read-out: % Competition)
97%	97%	95%	100%	100%	92%						Fc1ccc(-c2c(-c3ccncc3)[nH]c3nccnc23)cc1 [RO1155697-000-005]						
						97%	97%	95%	100%	92%	Fc1ccc(-c2c(-c3ccncc3)[nH]c3nccnc23)cc1 [Compound 122]	100%					
											CC(O)CNc1cc(-c2[nH]c3cccnc3c2-c2ccc(F)cc2)ccn1 (stereo not drawn) [Compound 140]	100%	76%	96%	86%	99 to 100%	< 50%
